Measured values from ChEMBL document CHEMBL1932963, “Mitochondrial targeting of a cationic amphiphilic polyproline helix” (Bioorg Med Chem Lett, 2012).

Key:
[1] = Cellular uptake in human HeLa cell mitochondria using mitotracker dye at 5 uM after 30 mins; assay type: ADME; details: 0.5 h
[2] = Cellular uptake in human HeLa cell mitochondria using mitotracker dye at 1 uM after 4 hrs; assay type: ADME
[3] = Cellular uptake in human HeLa cell lysosomes using LysoTracker dye at 5 uM after 1 hr by confocal microscopy in presence of FCCP; assay type: ADME, cell-based, Lysosome
[4] = Cellular uptake in human HeLa cell cytosol at 5 uM after 1 hr by confocal microscopy in presence of FCCP; assay type: ADME, cell-based
HeLa [5] = test: Cellular uptake in human HeLa cells assessed as increase in cellular fluorescence at 5 uM after 4 hrs by flow cytometry relative to control; assay type: ADME, cell-based
HeLa [6] = test: Cellular uptake in human HeLa cells at 5 uM after 4 hrs by flow cytometry relative control; assay type: ADME, cell-based
[7] = Cellular uptake in human HeLa cell lysosomes using LysoTracker dye at 1 uM after 4 hrs; assay type: ADME, cell-based, Lysosome
[8] = Cellular uptake in human HeLa cell mitochondria using mitotracker dye at 5 uM after 4 hrs; assay type: ADME
[9] = Cellular uptake in human HeLa cell mitochondria using mitotracker dye at 5 uM after 1 hr by confocal microscopy in presence of FCCP; assay type: ADME
HeLa [10] = test: Cellular uptake in human HeLa cells after 4 hrs by flow cytometry; assay type: ADME, cell-based
HeLa [11] = test: Cellular uptake in human HeLa cells up to 2.5 uM after 4 hrs by flow cytometry; assay type: ADME, cell-based

| Drug uptake [1] | Drug uptake [2] | Drug uptake [3] | Drug uptake [4] | Ratio (HeLa [5]) | Ratio (HeLa [6]) | Drug uptake [7] | Drug uptake [8] | Drug uptake [9] | Drug uptake (HeLa [10]) | Drug uptake (HeLa [11]) | SMILES |
| --- | --- | --- | --- | --- | --- | --- | --- | --- | --- | --- | --- |
| Active | Active | Active | Active | 14 | 7.5 | Active | Active | Not Active | Dose-dependent effect | – | CC(C)CO[C@H]1C[C@H](C(=O)N2C[C@@H](OCCCNC(=N)N)C[C@@H]2C(=O)N2C[C@@H](OCCCNC(=N)N)C[C@@H]2C(=O)N2C[C@@H](OCC(C)C)C[C@@H]2C(=O)N2C[C@@H](OCCCNC(=N)N)C[C@@H]2C(=O)N2C[C@@H](OCCCNC(=N)N)C[C@@H]2C(=O)N2C[C@@H](OCC(C)C)C[C@@H]2C(N)=O)N(C[C@H]2C[C@H](OCCCNC(=N)N)CN2C(=O)[C@H]2C[C@H](OCCCNC(=N)N)CN2C(=O)[C@H]2C[C@H](OCC(C)C)CN2C(=O)[C@H]2C[C@H](OCCCNC(=N)N)CN2C(=O)[C@H]2C[C@H](OCCCNC(=N)N)CN2C(=O)[C@H]2C[C@H](OCC(C)C)CN2C(=O)CNC(=O)c2cccc(-c3c4ccc(=O)cc-4oc4cc(O)ccc34)c2C(=O)O)C1 |
| – | – | – | – | – | – | – | – | – | – | Not Active | N=C(N)NCCC[C@H](NC(=O)[C@H](CCCNC(=N)N)NC(=O)[C@H](CCCNC(=N)N)NC(=O)[C@H](CCC(N)=O)NC(=O)[C@H](CCCNC(=N)N)NC(=O)[C@H](CCCNC(=N)N)NC(=O)[C@H](CCCCN)NC(=O)[C@H](CCCCN)NC(=O)[C@H](CCCNC(=N)N)NC(=O)CNC(=O)[C@H](Cc1ccc(O)cc1)NC(=O)c1ccccc1-c1c2ccc(=O)cc-2oc2cc(O)ccc12)C(N)=O |
